Reference: patent publication US20140031217A1, “HERBICIDAL COMPOSITIONS COMPRISING 4-AMINO-3-CHLORO-5-FLUORO-6-(4-CHLORO-2-FLUORO-3-METHOXYPHENYL)PYRIDINE-2-CARBOXYLIC ACID OR A DERIVATIVE THEREOF AND AUXIN TRANSPORT INHIBITORS” (DOW AGROSCIENCES LLC, priority 2012, published 2014)

What was measured:
CYPIR = assay: Postemergence foliar-applied greenhouse weed control, CYPIR; type: in vivo, Cyperus iria L.
Excerpt: (§1) Seeds or nutlets of the desired test plant species were planted in a soil matrix prepared by mixing a loam or sandy loam soil (e.g., 28.6 percent silt, 18.8 percent clay, and 52.6 percent sand, with a pH of about 5.8 and an organic matter content of about 1.8 percent) and calcareous grit in an 80 to 20 ratio. The soil matrix was contained in plastic pots with a volume of 1 quart and a surface area of 83.6 square centimeters (cm^2). When required to ensure good germination and healthy plants, a fungicide treatment and/or other chemical or physical treatment was applied. The plants were grown for 8-22 days in a greenhouse with an approximate 14 h photoperiod which was maintained at about 29° C. during the day and 26° C. during the night. Nutrients (Peters Excel® 15-5-15 5-Ca 2-Mg and iron chelate) were applied in the irrigation solution as needed and water was added on a regular basis. Supplemental lighting was provided with overhead metal halide 1000-Watt lamps as necessary. The plants were employed for testing when they reached the first through fourth true leaf stage.
(§2) Treatments consisted of the acid or esters of 4-amino-3-chloro-5-fluoro-6-(4-chloro-2-fluoro-3-methoxy-phenyl) pyridine-2-carboxylic acid (Compound A), each formulated as an SC (suspension concentrate), and various herbicidal components alone and in combination. Forms of compound A were applied on an acid equivalent basis.
(§3) Other herbicidal components were applied on an active ingredient basis and included auxin transport inhibiting (ATI) herbicides chlorflurenol (technical material), chlorflurenol-methyl (technical material), diflufenzopyr (technical material), diflufenzopyr sodium (technical material), flurenol-methyl (technical material) and naptalam (technical material).
(§4) Treatment requirements were calculated based upon the rates being tested, the concentration of active ingredient or acid equivalent in the formulation, and a 12 mL application volume at a rate of 187 L/ha.
(§5) For treatments comprised of formulated and technical compounds, weighed amounts of the technical materials were placed individually in 25 mL glass vials and dissolved in a volume of 97:3 v/v acetone/DMSO to obtain 12× stock solutions, and measured amounts of the formulated compounds were placed individually in 25 mL glass vials and diluted in a volume of 1.5% (v/v) crop oil concentrate or water to obtain 12× stock solutions. […] Application solutions were prepared by adding an appropriate amount of each stock solution (e.g., 1 mL) and diluted to the appropriate final concentrations with the addition of an appropriate amount of an aqueous mixture of 1.5% (v/v) crop oil concentrate so that the final spray solutions contained 1.25% (v/v) crop oil concentrate. When required, additional water and/or 97:3 v/v acetone/DMSO was added to individual application solutions so that the final acetone and DMSO concentrations of the application solutions being compared were 8.1% and 0.25%, respectively.
(§6) All stock solutions and applications solutions were visually inspected for compound compatibility prior to application. Spray solutions were applied to the plant material with an overhead Mandel track sprayer equipped with an 8002E nozzle calibrated to deliver 187 L/ha over an application area of 0.503 m^2 at a spray height of 18 to 20 inches (46 to 50 cm) above average plant canopy height. Control plants were sprayed in the same manner with the solvent blank.
(§7) The treated plants and control plants were placed in a greenhouse as described above and watered by sub-irrigation to prevent wash-off of the test compounds. After approximately 3 weeks, the condition of the test plants as compared with that of the untreated plants was determined visually and scored on a scale of 0 to 100 percent where 0 corresponds to no injury or growth inhibition and 100 corresponds to complete kill. […]

IPOHE = assay: Postemergence foliar-applied greenhouse weed control, IPOHE; type: in vivo, Ipomoea hederacea Jacq.
Excerpt: as §1, §2, §3, §4, §5, §6, §7

LEFCH = assay: In-water applied (paddy) greenhouse weed control, LEFCH; type: in vivo, Leptochloa chinensis (L.) Nees; settings: 20 DAA
Method: Weed seeds or nutlets of the desired test plant species were planted in puddled soil (mud) prepared by mixing a shredded, non-sterilized mineral soil (50.5 percent silt, 25.5 percent clay, and 24 percent sand, with a pH of about 7.6 and an organic matter content of about 2.9 percent) and water at a 1:1 volumetric ratio. The prepared mud was dispensed in 365 mL aliquots into 16-ounce (oz.) non-perforated plastic pots with a surface area of 86.59 square centimeters (cm^2) leaving a headspace of 3 centimeters (cm) in each pot. Mud was allowed to dry overnight prior to planting or transplanting. Rice seeds were planted in Sun Gro MetroMix® 306 planting mixture, which typically has a pH of 6.0 to 6.8 and an organic matter content of about 30 percent, in plastic plug trays. Seedlings at the second or third leaf stage of growth were transplanted into 840 mL of mud contained in 32-oz. non-perforated plastic pots with a surface area of 86.59 cm^2 4 days prior to herbicide application. The paddy was created by filling the headspace of the pots with 2.5 to 3 cm of water. When required to ensure good germination and healthy plants, a fungicide treatment and/or other chemical or physical treatment was applied. The plants were grown for 4-22 days in a greenhouse with an approximate 14 h photoperiod which was maintained at about 29′C during the day and 26° C. during the night. Nutrients were added as Osmocote® (19:6:12, N:P:K+minor nutrients) at 2 g per 16-oz. pot and 4 g per 960-mL 32-oz. pot. Water was added on a regular basis to maintain the paddy flood, and supplemental lighting was provided with overhead metal halide 1000-Watt lamps as necessary. The plants were employed for testing when they reached the second or third true leaf stage.
Treatments consisted of the acid or esters of 4-amino-3-chloro-5-fluoro-6-(4-chloro-2-fluoro-3-methoxy-phenyl)pyridine-2-carboxylic acid (compound A) each formulated as an SC and various herbicidal components alone and in combination. Forms of compound A were applied on an acid equivalent basis.
Other herbicidal components were applied on an active ingredient basis and included auxin transport inhibiting (ATI) herbicides chlorflurenol-methyl (technical material), chlorflurenol (technical material), diflufenzopyr (technical material), dilfufenzopyr sodium (technical material), flurenol-methyl (technical material,) and naptalam (technical material).
Treatment requirements for each compound or herbicidal component were calculated based upon the rates being tested, the concentration of active ingredient or acid equivalent in the formulation, an application volume of 2 mL per component per pot, and an application area of 86.59 cm^2 per pot.
For formulated compounds, a measured amount was placed in an individual 100 or 200 mL glass vial and was dissolved in a volume of 1.25% (v/v) Agri-Dex® crop oil concentrate to obtain application solutions.
For technical grade compounds, a weighed amount was placed in an individual 100 to 200 mL glass vial and was dissolved in a volume of acetone to obtain concentrated stock solutions. […] The concentrated stock solutions obtained were diluted with an equivalent volume of an aqueous mixture containing 2.5% (v/v) crop oil concentrate so that the final application solutions contained 1.25% (v/v) crop oil concentrate.
Applications were made by injecting with a pipetter appropriate amounts of the application solutions, individually and sequentially, into the aqueous layer of the paddy. Control plants were treated in the same manner with the solvent blank. Applications were made so that all treated plant material received the same concentrations of acetone and crop oil concentrate.
The treated plants and control plants were placed in a greenhouse as described above and water was added as needed to maintain a paddy flood. […]

## COc1c(Cl)ccc(-c2nc(C(=O)O)c(Cl)c(N)c2F)c1F [Compound A Acid, 4-amino-3-chloro-6-(4-chloro-2-fluoro-3-methoxyphenyl)-5-fluoropyridine-2-carboxylic acid]
CYPIR; 20 DAA, 4.38 gae/ha
  Visual Weed Control (%) Obs: 30%
IPOHE; 20 DAA, 4.38 gae/ha
  Visual Weed Control (%) Obs: 20%
IPOHE; 20 DAA, 8.75 gae/ha
  Visual Weed Control (%) Obs: 20%
IPOHE; 20 DAA, 17.5 gae/ha
  Visual Weed Control (%) Obs: 50%
LEFCH; 8.75 gae/ha
  Visual Weed Control (%) Obs: 20%
LEFCH; 17.5 gae/ha
  Visual Weed Control (%) Obs: 0%
LEFCH; 35 gae/ha
  Visual Weed Control (%) Obs: 30%

## COc1c(Cl)ccc(-c2nc(C(=O)OCc3ccccc3)c(Cl)c(N)c2F)c1F [Compound A Benzyl Ester]
CYPIR; 20 DAA, 4.38 gae/ha
  Visual Weed Control (%) Obs: 70%
CYPIR; 22 DAA, 8 gae/ha
  Visual Weed Control (%) Obs: 30%
IPOHE; 20 DAA, 4.38 gae/ha
  Visual Weed Control (%) Obs: 10%
IPOHE; 20 DAA, 8.75 gae/ha
  Visual Weed Control (%) Obs: 15%
IPOHE; 21 DAA, 4.38 gae/ha
  Visual Weed Control (%) Obs: 10%
IPOHE; 21 DAA, 8.75 gae/ha
  Visual Weed Control (%) Obs: 10%
IPOHE; 21 DAA, 17.5 gae/ha
  Visual Weed Control (%) Obs: 25%
IPOHE; 22 DAA, 8 gae/ha
  Visual Weed Control (%) Obs: 0%
IPOHE; 22 DAA, 16 gae/ha
  Visual Weed Control (%) Obs: 25%
IPOHE; 22 DAA, 32 gae/ha
  Visual Weed Control (%) Obs: 50%
LEFCH; 4.38 gae/ha
  Visual Weed Control (%) Obs: 0%
LEFCH; 8.75 gae/ha
  Visual Weed Control (%) Obs: 20%
LEFCH; 17.5 gae/ha
  Visual Weed Control (%) Obs: 30%
